From PubChem BioAssay (NCI)
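At the GI50, growth is halved. TGI: concentration producing complete growth inhibition.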

Assays:
Test in all cases: NCI anticancer screen, dose series, 384-well format
[1] = system: MALME-3M melanoma
[2] = system: OVCAR-4 ovarian
[3] = system: UO-31 renal
[4] = system: OVCAR-8 ovarian
[5] = system: TK-10 renal
[6] = system: MOLT-4 leukemia
[7] = system: T-47D breast
[8] = system: M14 melanoma
[9] = system: SF-539 CNS
[10] = system: SN12C renal
[11] = system: RPMI-8226 leukemia
[12] = system: SF-268 CNS
[13] = system: OVCAR-5 ovarian

In the case of `Cc1cc(C)c(CNC(=O)c2cc(-c3ccc(CN4CCOCC4)cc3)cc3c2cnn3C2CCCC2)c(=O)[nH]1`, the GI50 [1] is reported as 5.49 µM, the TGI [1] is reported as 15.9 µM and the GI50 [2] is reported as 12.9 µM. It also gave a TGI [2] of 25.8 µM, a GI50 [3] of 5.87 µM and a TGI [3] of 20.6 µM. It also gave a GI50 [4] of 11 µM, a TGI [4] of 23.3 µM and a GI50 [5] of 0.968 µM. The TGI [5] was 21.9 µM, the GI50 [6] was 3.02 µM and the TGI [6] was 7.94 µM. For the same molecule, the GI50 [7] was 0.986 µM, the TGI [7] was 10.6 µM and the GI50 [8] was 6.87 µM. For the same molecule, the TGI [8] was 17.6 µM, the GI50 [9] was 6.86 µM and the TGI [9] was 19.8 µM. For the same molecule, the GI50 [10] was 12.3 µM, the TGI [10] was 24.9 µM and the GI50 [11] was 2.11 µM. For the same molecule, the TGI [11] was 6.54 µM, the GI50 [12] was 6.37 µM and the TGI [12] was 13.6 µM. For the same molecule, the GI50 [13] was 13.1 µM and the TGI [13] was 26 µM.
